Measurements from ChEMBL document CHEMBL1697781, “Assessment of the health effects of chemicals in humans: II. Construction of an adverse effects database for QSAR modeling” (Curr Drug Discov Technol, 2004).
Numbered stars: 1 amine (or outer) side, 2 acyl side, 3 side chain; on linkers, the order of the positions; unused ones are H or OH. Bridge positions count the residues as written; N and C are the ends. Square brackets hold non-standard residues; d marks the D form. Peptide text beside a SMILES is read from it. I, II: the chains in the order shown. Actinocin(9to1) = Cc1c2oc3c(C)ccc(C(=O)[*:1])c3nc-2c(C(=O)[*:2])c(N)c1=O; NMeV = CN[C@H](C(=O)O)C(C)C; Sar = CNCC(=O)O

Tests used:
Settings in all cases: human
Hepatotoxicity [1] = assay: FDA HLAED, liver enzyme composite activity
Hepatotoxicity [2] = assay: FDA HLAED, serum glutamic pyruvic transaminase (SGPT) increase
Hepatotoxicity [3] = assay: FDA HLAED, alkaline phosphatase increase
Hepatotoxicity [4] = assay: FDA HLAED, serum glutamic oxaloacetic transaminase (SGOT) increase

## CC(=O)N[C@@H](CS)C(=O)O [ACETYLCYSTEINE]
Hepatotoxicity [1]
  Composite Activity - Active: 1
  Composite Activity - Marginal: 0
Hepatotoxicity [2]
  SGPT Increase - Activity Score: Active
  SGPT Increase - Index Value: 4.8
  SGPT Increase - Number of Reports: >= 4

## NCC(CC(=O)O)c1ccc(Cl)cc1 (stereo not given) [BACLOFEN]
Hepatotoxicity [1]
  Composite Activity - Active: 2
  Composite Activity - Marginal: 0
  Composite Activity - Score: Active
Hepatotoxicity [3]
  Alkaline Phosphatase Increase - Activity Score: Active
  Alkaline Phosphatase Increase - Index Value: 5.4
  Alkaline Phosphatase Increase - Number of Reports: >= 4
Hepatotoxicity [4]
  SGOT Increase - Activity Score: Active
  SGOT Increase - Index Value: 5.4
  SGOT Increase - Number of Reports: >= 4

## Nc1ccn([C@@H]2O[C@H](CO)[C@@H](O)[C@@H]2O)c(=O)n1 [CYTARABINE]
Hepatotoxicity [1]; Liver
  Composite Activity - Active: 3
  Composite Activity - Marginal: 0
  Composite Activity - Score: Active
Hepatotoxicity [3]
  Alkaline Phosphatase Increase - Activity Score: Active
  Alkaline Phosphatase Increase - Index Value: 4.1
  Alkaline Phosphatase Increase - Number of Reports: >= 4
Hepatotoxicity [2]
  SGPT Increase - Activity Score: Active
  SGPT Increase - Index Value: 4.1
  SGPT Increase - Number of Reports: >= 4
Hepatotoxicity [4]
  SGOT Increase - Activity Score: Active
  SGOT Increase - Index Value: 6.1
  SGOT Increase - Number of Reports: >= 4

## Cc1c2oc3c(C)ccc(C(=O)N[C@@H]4C(=O)N[C@H](C(C)C)C(=O)N5CCC[C@H]5C(=O)N(C)CC(=O)N(C)[C@@H](C(C)C)C(=O)O[C@@H]4C)c3nc-2c(C(=O)N[C@@H]2C(=O)N[C@H](C(C)C)C(=O)N3CCC[C@H]3C(=O)N(C)CC(=O)N(C)[C@@H](C(C)C)C(=O)O[C@@H]2C)c(N)c1=O [DACTINOMYCIN] (I: T[dV]P[Sar][NMeV] / II: T[dV]P[Sar][NMeV]; ester I:1-I:C, II:1-II:C; linker I:N-II:N via Actinocin(9to1))
Hepatotoxicity [1]
  Composite Activity - Active: 2
  Composite Activity - Marginal: 0
  Composite Activity - Score: Active
Hepatotoxicity [2]
  SGPT Increase - Activity Score: Active
  SGPT Increase - Index Value: 23.7
  SGPT Increase - Number of Reports: >= 4
Hepatotoxicity [4]
  SGOT Increase - Activity Score: Active
  SGOT Increase - Index Value: 29.6
  SGOT Increase - Number of Reports: >= 4

## C#C[C@]1(O)CC[C@H]2[C@@H]3CCC4=Cc5oncc5C[C@]4(C)[C@H]3CC[C@@]21C [DANAZOL]
Hepatotoxicity [1]
  Composite Activity - Active: 1
  Composite Activity - Marginal: 0
Hepatotoxicity [2]
  SGPT Increase - Activity Score: Active
  SGPT Increase - Index Value: 10.2
  SGPT Increase - Number of Reports: >= 4

## CC(O)(P(=O)(O)O)P(=O)(O)O [ETIDRONIC ACID]
Hepatotoxicity [1]
  Composite Activity - Active: 1
  Composite Activity - Marginal: 0
Hepatotoxicity [3]
  Alkaline Phosphatase Increase - Activity Score: Active
  Alkaline Phosphatase Increase - Index Value: 8.6
  Alkaline Phosphatase Increase - Number of Reports: >= 4

## FC(F)(F)C(Cl)Br (stereo not given) [HALOTHANE]
Hepatotoxicity [1]
  Composite Activity - Active: 1
  Composite Activity - Marginal: 0
Hepatotoxicity [4]
  SGOT Increase - Activity Score: Active
  SGOT Increase - Index Value: 16.5
  SGOT Increase - Number of Reports: >= 4

## COc1ccc2c(c1)c(CC(=O)O)c(C)n2C(=O)c1ccc(Cl)cc1 [INDOMETHACIN]
Hepatotoxicity [1]
  Composite Activity - Active: 0
  Composite Activity - Marginal: 2
Hepatotoxicity [3]
  Alkaline Phosphatase Increase - Activity Score: Marginally Active
  Alkaline Phosphatase Increase - Index Value: 3.1
  Alkaline Phosphatase Increase - Number of Reports: >= 4
Hepatotoxicity [4]
  SGOT Increase - Activity Score: Marginally Active
  SGOT Increase - Index Value: 3.8
  SGOT Increase - Number of Reports: >= 4

## CN1CCN(C2=Nc3ccccc3Oc3ccc(Cl)cc32)CC1 [LOXAPINE]
Hepatotoxicity [1]
  Composite Activity - Active: 2
  Composite Activity - Marginal: 0
  Composite Activity - Score: Active
Hepatotoxicity [2]
  SGPT Increase - Activity Score: Active
  SGPT Increase - Index Value: 9.9
  SGPT Increase - Number of Reports: >= 4
Hepatotoxicity [4]
  SGOT Increase - Activity Score: Active
  SGOT Increase - Index Value: 9.9
  SGOT Increase - Number of Reports: >= 4

## Cc1cccc(Nc2ccccc2C(=O)O)c1C [MEFENAMIC ACID]
Hepatotoxicity [1]; Liver
  Composite Activity - Active: 2
  Composite Activity - Marginal: 0
  Composite Activity - Score: Active
Hepatotoxicity [2]
  SGPT Increase - Activity Score: Active
  SGPT Increase - Index Value: 19.5
  SGPT Increase - Number of Reports: < 4
Hepatotoxicity [4]
  SGOT Increase - Activity Score: Active
  SGOT Increase - Index Value: 26
  SGOT Increase - Number of Reports: >= 4

## Sc1ncnc2nc[nH]c12 [MERCAPTOPURINE ANHYDROUS]
Hepatotoxicity [1]; Liver
  Composite Activity - Active: 2
  Composite Activity - Marginal: 0
  Composite Activity - Score: Active
Hepatotoxicity [2]
  SGPT Increase - Activity Score: Active
  SGPT Increase - Index Value: 5.2
  SGPT Increase - Number of Reports: >= 4
Hepatotoxicity [4]
  SGOT Increase - Activity Score: Active
  SGOT Increase - Index Value: 4.4
  SGOT Increase - Number of Reports: >= 4

## Cc1ncc([N+](=O)[O-])n1CCO [METRONIDAZOLE]
Hepatotoxicity [1]
  Composite Activity - Active: 1
  Composite Activity - Marginal: 0
Hepatotoxicity [3]
  Alkaline Phosphatase Increase - Activity Score: Active
  Alkaline Phosphatase Increase - Index Value: 6.2
  Alkaline Phosphatase Increase - Number of Reports: >= 4

## CN(C)c1ccc(O)c2c1C[C@H]1C[C@H]3[C@H](N(C)C)C(O)=C(C(N)=O)C(=O)[C@@]3(O)C(O)=C1C2=O [MINOCYCLINE]
Hepatotoxicity [1]
  Composite Activity - Active: 0
  Composite Activity - Marginal: 2
Hepatotoxicity [2]
  SGPT Increase - Activity Score: Marginally Active
  SGPT Increase - Index Value: No Shipping Units
  SGPT Increase - Number of Reports: >= 4
Hepatotoxicity [4]
  SGOT Increase - Activity Score: Marginally Active
  SGOT Increase - Index Value: No Shipping Units
  SGOT Increase - Number of Reports: >= 4

## CCOc1ccc2ccccc2c1C(=O)N[C@@H]1C(=O)N2[C@@H]1SC(C)(C)[C@@H]2C(=O)O [NAFCILLIN]
Hepatotoxicity [1]
  Composite Activity - Active: 1
  Composite Activity - Marginal: 0
Hepatotoxicity [3]
  Alkaline Phosphatase Increase - Activity Score: Active
  Alkaline Phosphatase Increase - Index Value: 10.9
  Alkaline Phosphatase Increase - Number of Reports: >= 4

## CNCCC=C1c2ccccc2CCc2ccccc21 [NORTRIPTYLINE]
Hepatotoxicity [1]; Liver
  Composite Activity - Active: 1
  Composite Activity - Marginal: 1
Hepatotoxicity [3]
  Alkaline Phosphatase Increase - Activity Score: Active
  Alkaline Phosphatase Increase - Index Value: 15.4
  Alkaline Phosphatase Increase - Number of Reports: >= 4
Hepatotoxicity [2]
  SGPT Increase - Activity Score: Marginally Active
  SGPT Increase - Index Value: 11.6
  SGPT Increase - Number of Reports: < 4

## OCCN1CCN(CCCN2c3ccccc3Sc3ccc(Cl)cc32)CC1 [PERPHENAZINE]
Hepatotoxicity [1]
  Composite Activity - Active: 0
  Composite Activity - Marginal: 0

## O=C1NC(=O)C(c2ccccc2)(c2ccccc2)N1 [PHENYTOIN]
Hepatotoxicity [1]; Liver
  Composite Activity - Active: 0
  Composite Activity - Marginal: 0

## COc1cc2nc(N3CCN(C(=O)c4ccco4)CC3)nc(N)c2cc1OC [PRAZOSIN]
Hepatotoxicity [1]
  Composite Activity - Active: 0
  Composite Activity - Marginal: 0

## C[C@]12C=CC(=O)C=C1CC[C@@H]1[C@@H]2C(=O)C[C@@]2(C)[C@H]1CC[C@]2(O)C(=O)CO [PREDNISONE]
Hepatotoxicity [1]
  Composite Activity - Active: 0
  Composite Activity - Marginal: 0

## CCC1(c2ccccc2)C(=O)NCNC1=O [PRIMIDONE]
Hepatotoxicity [1]
  Composite Activity - Active: 0
  Composite Activity - Marginal: 0

## CCCN(CCC)S(=O)(=O)c1ccc(C(=O)O)cc1 [PROBENECID]
Hepatotoxicity [1]
  Composite Activity - Active: 0
  Composite Activity - Marginal: 0

## CNNCc1ccc(C(=O)NC(C)C)cc1 [PROCARBAZINE]
Hepatotoxicity [1]
  Composite Activity - Active: 0
  Composite Activity - Marginal: 0

## CCCc1cc(=O)[nH]c(=S)[nH]1 [PROPYLTHIOURACIL]
Hepatotoxicity [1]; Liver
  Composite Activity - Active: 0
  Composite Activity - Marginal: 0

## C=C[C@H]1C[N@@]2CC[C@H]1C[C@@H]2[C@@H](O)c1ccnc2ccc(OC)cc12 [QUINIDINE]
Hepatotoxicity [1]
  Composite Activity - Active: 0
  Composite Activity - Marginal: 0

## CC(=O)S[C@@H]1CC2=CC(=O)CC[C@]2(C)[C@H]2CC[C@@]3(C)[C@@H](CC[C@@]34CCC(=O)O4)[C@H]12 [SPIRONOLACTONE]
Hepatotoxicity [1]
  Composite Activity - Active: 0
  Composite Activity - Marginal: 0

## Nc1ccc(S(=O)(=O)Nc2ncccn2)cc1 [SULFADIAZINE]
Hepatotoxicity [1]; Liver
  Composite Activity - Active: 0
  Composite Activity - Marginal: 0

## O=C(O)c1cc(/N=N/c2ccc(S(=O)(=O)Nc3ccccn3)cc2)ccc1O [SULFASALAZINE]
Hepatotoxicity [1]
  Composite Activity - Active: 1
  Composite Activity - Marginal: 0
Hepatotoxicity [2]
  SGPT Increase - Activity Score: Active
  SGPT Increase - Index Value: 4
  SGPT Increase - Number of Reports: >= 4

## CN(C)[C@@H]1C(O)=C(C(N)=O)C(=O)[C@@]2(O)C(O)=C3C(=O)c4c(O)cccc4[C@@](C)(O)[C@H]3C[C@@H]12 [TETRACYCLINE]
Hepatotoxicity [1]
  Composite Activity - Active: 0
  Composite Activity - Marginal: 0

## CSc1ccc2c(c1)N(CCC1CCCCN1C)c1ccccc1S2 (stereo not given) [THIORIDAZINE]
Hepatotoxicity [1]
  Composite Activity - Active: 0
  Composite Activity - Marginal: 1
Hepatotoxicity [3]
  Alkaline Phosphatase Increase - Activity Score: Marginally Active
  Alkaline Phosphatase Increase - Index Value: 3.2
  Alkaline Phosphatase Increase - Number of Reports: >= 4

## S=P(N1CC1)(N1CC1)N1CC1 [THIOTEPA]
Hepatotoxicity [1]
  Composite Activity - Active: 0
  Composite Activity - Marginal: 0

## NC[C@H]1O[C@H](O[C@H]2[C@H](O)[C@@H](O[C@H]3O[C@H](CO)[C@@H](O)[C@H](N)[C@H]3O)[C@H](N)C[C@@H]2N)[C@H](N)C[C@@H]1O [TOBRAMYCIN]
Hepatotoxicity [1]
  Composite Activity - Active: 0
  Composite Activity - Marginal: 0

## N[C@@H]1C[C@H]1c1ccccc1.N[C@H]1C[C@@H]1c1ccccc1 [TRANYLCYPROMINE]
Hepatotoxicity [1]; Liver
  Composite Activity - Active: 0
  Composite Activity - Marginal: 0

## CN1CCN(CCCN2c3ccccc3Sc3ccc(C(F)(F)F)cc32)CC1 [TRIFLUOPERAZINE]
Hepatotoxicity [1]
  Composite Activity - Active: 0
  Composite Activity - Marginal: 0

## CC[C@]1(O)C[C@H]2CN(CCc3c([nH]c4ccccc34)[C@@](C(=O)OC)(c3cc4c(cc3OC)N(C=O)[C@H]3[C@@](O)(C(=O)OC)[C@H](OC(C)=O)[C@]5(CC)C=CCN6CC[C@]43[C@@H]65)C2)C1 [VINCRISTINE]
Hepatotoxicity [1]
  Composite Activity - Active: 0
  Composite Activity - Marginal: 0
